Measurements: US20130243801A1, “EPITOPE THERAPY FOR INFECTIOUS DISEASES” (NEW YORK UNIVERSITY, priority 2010, published 2013)
Where no end group is shown, it is not given here.

Columns and labels:
[1] = mouse, in vivo; for signs of toxicity: iv
[2] = biological target: complex of peptide 25 (aa 240-254) of M. tuberculosis Ag85B and the mouse MHC II allele I-A^b (Mycobacterium tuberculosis; mouse) (UniProt P14434); experiment: cell-based or functional assay

With “FQDAYNAAGGHNAVF [peptide 25, FQDAYNAAGGHNAVF]” as the substance, how does the morbidity or mortality [1] read?
The morbidity or mortality was “no morbidity or mortality was observed”.

And the signs of toxicity [1]?
Its signs of toxicity is “Neither group of mice displayed any signs of toxicity”.

With “ISQAVHAAHAEINEAGR [OVA peptide, ISQAVHAAHAEINEAGR, reference compound]” as the substance, how does the signs of toxicity [1] read?
Its signs of toxicity is “Neither group of mice displayed any signs of toxicity”.

With “P25TCR transgenic T-cell antigen receptor (on P25TCRTh1 CD4+ Th1 effector cells from P25TCR-Tg mice)” as the substance, how does the frequency of IFN-γ+ P25TCRTh1 cells in the lungs of H37Rv-infected mice six hours after intravenous peptide 25 [2] read?
Its frequency of IFN-γ+ P25TCRTh1 cells in the lungs of H37Rv-infected mice six hours after intravenous peptide 25 is 20 to 50%.
